Experiments:
[1] = prior publications; cited from earlier work
[2] = test system: 6-OHDA-induced lesions of nigrostrial dopamine neurons; settings: prior publications; cited from earlier work
in vitro = settings: human
Method: The cytotoxicity of compound 3 was assessed in vitro using two standard cell lines, HepG2, derived from a human hepatocellular carcinoma, and SH-SY5Y, derived from a human neuroblastoma, both in the presence and absence of excess iron.
HepG2 cells were maintained at ˜5% CO2, 37° C., and 95% relative humidity in minimal essential media (MEM) supplemented with 10% fetal bovine serum plus 0.1 mM non-essential amino acids, 2 mM L-glutamine, and penicillin/streptomycin. SH-SY5Y cells were maintained at ˜5% CO2, 37° C., and 95% relative humidity in a mixture of minimal essential media (MEM) and F12 K media (1:1, v:v) supplemented with 10% fetal bovine serum plus 0.1 mM non-essential amino acids, 2 mM L-glutamine, and penicillin/streptomycin. The cells were subcultured every two to three days and plated in tissue culture treated opaque white 96-well plates at a density of 1×10^4 cells/well and incubated at ˜5% CO2, 37° C., and 95% relative humidity overnight prior to initiation of the assay.
A series of DMSO stocks of the test article at 100× of the final concentration were diluted 1:100 with fresh culture media (final DMSO concentration was 1%). The media from the plated cells was removed and replaced with 100 μL of media containing test article or tamoxifen with final concentrations ranging between 0.01 to 1000 μM in triplicate. Wells containing no cells were used as background controls. Tamoxifen was used as a known positive control and DMSO alone was used as a vehicle control. The cells were incubated for four hours at ˜5% CO2, 37° C., and 95% relative humidity.
Cell viability was determined using a commercially available kit to determine ATP levels by luminescence. Briefly, the buffer and lyophilized substrate from the kit were equilibrated to room temperature. The buffer was used to reconstitute the substrate just prior to addition to the wells of the cell plate (100 μL per well). The plate was placed into the Tecan Infinite M200 plate reader, agitated for 10 minutes followed by a 10 minute wait period, then read using an integration time of 0.5 seconds with no attenuation.
The mean luminescence from the test article treated cells was compared to that treated by DMSO only.

| Compound | Crossing of the BBB [1] | Activity against 6-OHDA in an animal model of Parkinson's disease [2] | CC50 at 4 h (in vitro) [µM] | CC50 at 4 h (in vitro; LC50 (μM) SHSY-5Y) [µM] |
| --- | --- | --- | --- | --- |
| CC(=O)N(O)CCCCCNC(=O)CCC(=O)N(O)CCCCCNC(=O)CCC(=O)N(O)CCCCCN [Desferal] | does not cross the BBB | protected the rats against 6-OHDA-induced lesions | – | – |
| OCCN1CCN(Cc2ccc(O)c3ncccc23)CC1 [5-[4-(2-hydroxyethyl)piperazin-1-ylmethyl]-8-hydroxyquinoline] | able to cross the BBB | active against 6-hydroxydopamine (6-OHDA) | – | – |
| CC/C(=C(\c1ccccc1)c1ccc(OCCN(C)C)cc1)c1ccccc1 [tamoxifen, reference compound] | – | – | ~50 | ~50 |

— patent US9034303B2, “Neuroprotective and neuro-restorative iron chelators and monoamine oxidase inhibitors and uses thereof” (priority 2010, dated 2015)
